Laboratory results as given in US20090184062A1, “METHOD FOR INHIBITING BIOFILM GROWTH” (PPG INDUSTRIES OHIO, INC., priority 2008, published 2009).
Marks after values point to notes of the source that are not given here.

Columns and labels:
[1] = tested on: Sphaerotilus natans (ATCC 15291) biofilm; assay: Biocidal effect on an existing Sphaerotilus natans biofilm in Erlenmeyer flasks (agar plate count of surviving organisms); format: cell-based
Method: In the following examples, the sheathed filamentous bacterium Sphaerotilus natans (ATCC 15291) was used. A freeze-dried sample of the bacterium was obtained from the American Type Culture Collection (ATCC, Rockville, Md.). ATCC growth medium (CYGA #1103 broth) was prepared by dissolving (per liter of tap water): 5 grams casitone (pancreatic digest of casein, Difco #225930), which is available from Voight Global Distributions, Inc., Lawrence, Kans.; 10 grams of glycerol; and 1 gram of yeast extract. The growth medium was sterilized at 120° C. for 15 minutes. The sample of Sphaerotilus natans obtained from ATCC was cultured in the CYGA growth medium and transferred to agar plates prepared from CYGA medium plus 1.5 weight percent agar. The agar plates were incubated at 30° C. The bacterium from these agar plates was transferred (subcultured) every few weeks to fresh agar plates to maintain the viability of the microorganism.
3-chloro-4,4-dimethyl-2-oxazolidinone (DMO-Cl) reagent was prepared by manually mixing a selected amount of 4,4-dimethyl-2-oxazolidinone (DMO) and a hypochlorite-containing stock solution in an Erlenmeyer flask, and allowing the mixture to stand for 8-10 hours at room temperature (about 23° C.) prior to use in the experiments. The hypochlorite-containing stock solution was prepared by dissolving calcium hypochlorite in deionized water in an Erlenmeyer flask. The amount of calcium hypochlorite used provided a hypochlorite concentration of approximately 1000 mg/L. The DMO used was Sustains Summer Shield (approximately 17.5 wt. % DMO, density of 1.14 g/mL), which is available from PPG Industries, Inc. The mixture was diluted to the desired concentration with sterile tap water before use in the experiments. Sterile tap water used in the experiments was prepared by autoclaving tap water at 120° C. for 15 minutes. The sterile tap water contained no measurable level of chlorine.
A loop full of Sphaerotilus natans (S. Natans) from an Agar plate containing the S. Natans culture was inoculated in 150 mL of CYGA #1103 growth medium and agitated in a temperature-controlled shaker at 30° C. and 150 rpm for 20 hours to prepare a pre-culture. Five (5) mL of this pre-culture were inoculated into each of a series of 250 mL Erlenmeyer flasks containing 150 mL of CYGA growth medium for batch cultivation of the S. Natans. The bacterium were cultivated at 30° C. for 96 hours on a rotary shaker at 150 rpm. At these conditions, a biofilm layer approximately 2-3 mm high formed on the inside wall of each of the Erlenmeyer flasks near the liquid surface. Approximately 50 to 75 percent of the liquid growth medium in the flasks was carefully decanted, leaving the biofilm layer intact. The decanted liquid growth medium was discarded.
For the control, sterile tap water was added to an Erlenmeyer flask. In other tests (as shown in Table I), various levels of hypochlorous acid (HOCl) or 3-chloro-4,4-dimethyl-2-oxazolidinone (DMO-Cl) were added to an Erlenmeyer flask. The amount of tap water used was approximately equal to the volume of decanted growth medium. The flasks were placed on a temperature controlled rotary shaker (30° C., 150 rpm) for 60 minutes. Total chlorine and free chlorine levels in the liquid medium in the flasks were measured at the beginning and at the end of the 60 minute contact time. At the end of the 60 minute contact time, the biofilm ring was carefully scraped from the flask surface and added to the liquid medium in the flask to ensure that the liquid medium contained the entire biofilm population for enumeration. The liquid in the flask was vigorously agitated to uniformly disperse the organisms. The liquid in the flask was sampled and serially diluted in sterile tap water for agar plating to enumerate the surviving organisms. Agar plating was performed in duplicate and the number of microorganism colonies counted after 48 hours of growth at approximately 30° C. […]

[2] = Total and free chlorine levels in the liquid medium at the end of the contact time (Hach DPD test kit); format: physicochemical; conditions: for End FC (free chlorine after one hour) / End TC (total chlorine after one hour): Table I, after 60 min with biofilm, expressed as mg/L Cl2; for End FC (free chlorine at end) / End TC (total chlorine at end): Table II, 30 min contact, as Cl2
Method: For the control, sterile tap water was added to an Erlenmeyer flask. In other tests (as shown in Table I), various levels of hypochlorous acid (HOCl) or 3-chloro-4,4-dimethyl-2-oxazolidinone (DMO-Cl) were added to an Erlenmeyer flask. The amount of tap water used was approximately equal to the volume of decanted growth medium. The flasks were placed on a temperature controlled rotary shaker (30° C., 150 rpm) for 60 minutes. Total chlorine and free chlorine levels in the liquid medium in the flasks were measured at the beginning and at the end of the 60 minute contact time. At the end of the 60 minute contact time, the biofilm ring was carefully scraped from the flask surface and added to the liquid medium in the flask to ensure that the liquid medium contained the entire biofilm population for enumeration. The liquid in the flask was vigorously agitated to uniformly disperse the organisms. The liquid in the flask was sampled and serially diluted in sterile tap water for agar plating to enumerate the surviving organisms. Agar plating was performed in duplicate and the number of microorganism colonies counted after 48 hours of growth at approximately 30° C.
The procedure of Example 1 was followed except that the concentration of DMO-Cl was varied from 15 μL/L to 60 μL/L, and the contact time was 30 minutes to allow a better opportunity for survival and detection of the S. Natans microorganism. Symbols and footnotes used in Table II that are the same as those found in Table I have the same meaning.

[3] = Table I, 60 min contact, initial total chlorine 5.4 mg/L (DMO-Cl prepared with 50 μL/L Sustain Summer Shield), average of duplicates
[4] = Table I, 60 min contact, initial total chlorine about 1 mg/L (HOCl 1.1; DMO-Cl 1.04, prepared with 50 μL/L Sustain Summer Shield, approx. 10 mg/L DMO), average of duplicates
[5] = initial total chlorine 5.4 mg/L
[6] = initial total chlorine about 1 mg/L (HOCl 1.1; DMO-Cl 1.04)
[7] = DMO-Cl prepared with 15 μL/L Sustain Summer Shield, initial total chlorine 1.2 mg/L
[8] = DMO-Cl prepared with 30 μL/L Sustain Summer Shield, initial total chlorine 1.18 mg/L
[9] = DMO-Cl prepared with 60 μL/L Sustain Summer Shield, initial total chlorine 1.19 mg/L
[10] = HOCl, initial total chlorine 1.1 mg/L

Row | End FC (free chlorine at end) [2, 10] [mg/L] | End TC (total chlorine at end) [2, 10] [mg/L] | Compound | control of biofilm in words ([1]; between 50 and 60 μL/L of DMO with a source of free available chlorine, contact times between 30 and 60 minutes) | Final Cell Count [1, 3] [cfu/mL] | Final Cell Count [1, 4] | Final Cell Count ([1]; Table II, 30 min contact, DMO-Cl prepared with 15 μL/L Sustain Summer Shield (approx. 3 mg/L DMO), initial total chlorine 1.2 mg/L) | Final Cell Count ([1]; Table II, 30 min contact, DMO-Cl prepared with 30 μL/L Sustain Summer Shield (approx. 6 mg/L DMO), initial total chlorine 1.18 mg/L) | Final Cell Count ([1]; Table II, 30 min contact, DMO-Cl prepared with 60 μL/L Sustain Summer Shield (approx. 12 mg/L DMO), initial total chlorine 1.19 mg/L) [cfu/mL] | reduction in viable cell numbers ([1]; existing S. Natans biofilm, 60 minutes contact time (Table I)) [log] | End FC (free chlorine after one hour) [2, 5] [mg/L] | End TC (total chlorine after one hour) [2, 5] [mg/L] | End FC (free chlorine after one hour) [2, 6] [mg/L] | End TC (total chlorine after one hour) [2, 6] [mg/L] | End FC (free chlorine at end) [2, 7] [mg/L] | End TC (total chlorine at end) [2, 7] [mg/L] | End FC (free chlorine at end) [2, 8] [mg/L] | End TC (total chlorine at end) [2, 8] [mg/L] | End FC (free chlorine at end) [2, 9] [mg/L] | End TC (total chlorine at end) [2, 9] [mg/L] | Final Cell Count ([1]; Table II, 30 min contact, HOCl, initial total chlorine 1.1 mg/L)
1 | – | – | CC1(C)COC(=O)N1 [DMO, 4,4-dimethyl-2-oxazolidinone] | complete control | – | – | – | – | – | – | – | – | – | – | – | – | – | – | – | – | –
2 | – | – | CC1(C)COC(=O)N1Cl [DMO-Cl, 3-chloro-4,4-dimethyl-2-oxazolidinone] | – | 0 | 25^a cfu/mL | 2.1 × 10^4 cfu/mL | 1.6 × 10^4 cfu/mL | 0 | ≥ 3 | 0.2 | 4.7 | 0.1 | 0.4 | 0.05 | 0.52 | 0.07 | 0.47 | 0 | 0.41 | –
3 | 0.1 | 0.31 | OCl [HOCl, Hypochlorous Acid, reference compound] | – | 0 | 1.9 × 10^4 cfu/mL | – | – | – | – | 1.6 | 3.1 | 0 | 0.3 | – | – | – | – | – | – | 2.3 × 10^4 cfu/mL
